Several values for one entry are separate records, joined by “and”; a condition that tells them apart may be missing. Equal values may be shown once.
Experiments:
[1] = biological target: T1, recombinant BACE1 extracellular domain (Homo sapiens, UniProt P56817); experiment: FRET-based BACE1 inhibition (BACE1-activity FRET) assay; type: biochemical
T1 construct: purchased Thermo Fisher Scientific P2985
Protocol: In addition, we performed a fluorescence resonance energy transfer (FRET)-based BACE1 inhibition assay using the recombinant BACE1 extracellular domain and a BACE1 substrate coupled to a donor fluorophore, which is unquenched […] to the activity of BACE1. […] (Figure 1F).
Protease activity was determined using a FRET-based assay with recombinant BACE1 protein (Thermo Fisher Scientific; P2985). BACE1 inhibition was determined in end-points assays according to the manufacturer’s protocol except using a reduced volume of 12 μL in 384-well plates (Greiner, 788896). […] Fluorescence intensities were quantified with an infinite 200pro reader (Tecan) using top-reading mode. Data points were approximated using a logistic fit to determine half-inhibitory concentrations (pIC50).

[2] = biological target: T2, hBACE1 D289N (proteolytic inactive mutant) in HEK293T cells (Homo sapiens, UniProt P56817, D289N); experiment: Staining of transfected HEK293T cells, confocal imaging: BACE1 D289N; type: cell-based
T2 construct: expressed in transfected cells; host or cells: HEK293T
Protocol: (§1) Next, we explored the performance of the new Alexa-C3 compounds in living cells. Because of the rather hydrophilic properties, we exclusively targeted the cell membrane. To prevent intracellular accumulation, we first performed stainings at 4 °C arresting ATP-dependent endocytosis. […] All of the constructs were tagged at the C-terminus with either EGFP or mCherry to visualize subcellular expression. […] With these experiments, we want to exclude that a lack of staining is caused by an impaired accessibility of the protein by Alexa-C3 compounds. […] We then tested samples with BACE1 expression after fixation of the cells with paraformaldehyde (PFA).
(§2) (D) All conjugates were also probed on cells fixed with 4% paraformaldehyde (PFA) for 15 min prior to staining. […] Scale bars represent 5 μm (A–D) and 20 μm (E). […] Samples were excited at 488, 561, and 633 nm, respectively.
(§3) HEK293T cells (ATCC accession number CRL-11268) were maintained in Dulbecco's modified Eagle's medium (Sigma-Aldrich D6046) with 1g/L glucose, supplemented with 10% FCS (Merck) and 1% penicillin/streptomycin (PAA). CHO-K1 cells (ATCC #CCL-61) were maintained in modified phenol red free RPMI-1640 medium (Sigma-Aldrich, R7509), supplemented with 2 mM L-glutamine (Sigma-Aldrich, G7513), and 10% FCS (Merck). Cells were cultured at 37 °C in a 5% CO2 atmosphere. The following plasmids were used for transfection with the amount of DNA indicated (per 35 mm Petri dish): hBACE1 (NM_012104.4), 50 ng for single molecule recordings, 200 ng otherwise; hBACE1 fused to EGFP or mCherry, 75 ng; hBACE1 D289N fused to EGFP or mCherry, 75 ng; hBACE1 D289N, 200–400 ng; hBACE2 (NM_012105.3) fused to EGFP, 75 ng; hCathepsinD (HsCD00438327), Harvard PlasmID, 75 ng. Transfection was performed 24 h after plating using jetPEI (Polyplus) according to the manufacturer’s protocol.
For labeling, we plated HEK293T cells onto sterile 18 mm 1.5H borosilicate coverslips (VWR), coated with poly-D-lysine (Sigma). […]

[3] = Fluorescence spectroscopy, sensitivity to BSA and Expi293F cells
Protocol: Emission and excitation spectra of all compounds were determined at a concentration of 33 nM in phosphate buffered saline (PBS) using an infinite 200pro (Tecan) with a resolution of 2 nm. […] For sensitivity assessment, we used PBS, PBS + BSA (0.05%), and Expi293F cells in fluorobrite (2 × 10^6 cells/mL).

[4] = FCS of free Alexa-C3 in HBS in the absence of BACE1; conditions: 100 nM in HBS, pH 5, no BACE1, mean ± SD
[5] = biological target: T3, hBACE1 fused to EGFP or mCherry in HEK293T cells (Homo sapiens, UniProt P56817); experiment: Staining of transfected HEK293T cells, confocal imaging: BACE1; type: cell-based; conditions: living HEK293T, preincubation with 2 μM C3
T3 construct: expressed in transfected cells; host or cells: HEK293T
Protocol: as §1, §2, §3
For labeling, we plated HEK293T cells onto sterile 18 mm 1.5H borosilicate coverslips (VWR), coated with poly-D-lysine (Sigma). […] In addition, some cells were also fixed with 4% PFA or permeabilized with HBS + 50 μg/mL of Saponin for 15 min prior to staining as stated in the figure legend. After staining, live cells were washed with HBS twice. Confocal imaging was conducted at room temperature in HBS using the 63× objective and the pinhole set to 1 AU. Confocal imaging was performed 24 h after transfection.

[6] = biological target: T4, wild-type hBACE1 in CHO-K1 cells (Homo sapiens, UniProt P56817); experiment: Single molecule TIRF microscopy and bleaching step analysis in CHO-K1 cells; type: cell-based; conditions: 200 nM probe, fixed CHO-K1, TIRF, after rolling background subtraction
T4 construct: expressed in transfected cells; host or cells: CHO-K1
Protocol: Due to the high photostability and quantum yield of the Alexa dyes, the C3-compounds are potential tools for single molecule fluorescence microscopy of BACE1. […] CHO-K1 cells were transfected with wild-type BACE1. […] The samples were then recorded using total internal reflection fluorescence (TIRF) microscopy. […] Prior to analysis, ImageJ rolling background subtraction was applied[45] (Figure 6A, right panel). […] Single particles were identified and time traces of fluorescence intensity were extracted using GMimPro[46] (Figure 6B). The time traces were then subjected to a bleaching-step analysis with quickPBSA[47] (Figure 6B). […] The msfGFP was reported previously to display a fluorescence probability of about 50%, defined as combined probability of fluorescence, detection in the specific imaging system and identification in the analysis of a BACE1 molecule.[48] […] Here, the best fits indicated also a fluorescence probability of about 60%, but with a considerably lower fit error compared to dimers only (Figure 6D, blue traces).
The panel in the middle depicts typical single molecule complexes 48 h after transfection with 50 ng wild type BACE1. […] The insets highlight single fluorescence spots at higher magnification. […] (B) Single fluorescence spots were located and fluorescence intensities over time were extracted (see methods). […]

[7] = biological target: recombinant human BACE1 protein (amino acids 1–457, extracellular domain) (Homo sapiens, UniProt P56817); experiment: Fluorescence correlation spectroscopy (FCS) with BACE1 ECD in solution
BACE1 = conditions: cited from earlier work
[8] = biological target: BACE-1 (mouse Protein, recombinant) (Mus musculus, UniProt P56818); experiment: Nanotemper (Monolith NT.115) binding analysis; conditions: for binding of free acid dyes to recombinant BACE1: 0.1 nM dye, BACE1 0.3–5000 nM
Protocol: For binding analysis, the Monolith NT.115 (Nanotemper) was used. BACE-1 (mouse Protein, recombinant, life technologies, 50002-M08H-250, LCL10JA2204)) was dissolved in 50 mM HEPES/100 mM NaCl, pH 5 to a concentration of 20 μM. […] Samples were loaded on standard capillaries (Nanotemper, MO-K022) and measured in triplicate at 22 °C, using 1%/60% LED power for Alexa488/Alexa568 and 10% MST power. Fluorescence was plotted against protein concentrations.

[9] = BACE1 concentration 0.305 (unit not given; 0.3–5000 nM), triplicate
[10] = BACE1 concentration 0.61, triplicate
[11] = BACE1 concentration 1.221, triplicate
[12] = BACE1 concentration 2.441, triplicate
[13] = BACE1 concentration 4.883, triplicate
[14] = BACE1 concentration 9.766, triplicate
[15] = BACE1 concentration 19.531, triplicate
[16] = BACE1 concentration 39.062, triplicate
[17] = BACE1 concentration 78.125, triplicate
[18] = BACE1 concentration 156.25, triplicate
[19] = BACE1 concentration 312.5, triplicate
[20] = BACE1 concentration 625, triplicate
[21] = BACE1 concentration 1250, triplicate
[22] = BACE1 concentration 2500, triplicate
[23] = BACE1 concentration 5000, triplicate

BACE-1 (mouse Protein, recombinant), sequence (P56818 46-457 limits assumed): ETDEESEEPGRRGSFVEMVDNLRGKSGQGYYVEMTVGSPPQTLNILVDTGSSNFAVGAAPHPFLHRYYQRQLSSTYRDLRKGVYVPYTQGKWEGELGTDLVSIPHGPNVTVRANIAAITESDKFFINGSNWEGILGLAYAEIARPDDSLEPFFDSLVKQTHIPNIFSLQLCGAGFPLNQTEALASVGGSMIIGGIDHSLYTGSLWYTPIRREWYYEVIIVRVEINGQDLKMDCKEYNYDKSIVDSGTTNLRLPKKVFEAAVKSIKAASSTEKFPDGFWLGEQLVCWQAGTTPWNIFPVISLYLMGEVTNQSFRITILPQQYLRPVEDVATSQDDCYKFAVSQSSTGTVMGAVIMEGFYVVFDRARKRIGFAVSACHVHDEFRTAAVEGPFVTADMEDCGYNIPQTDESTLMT
recombinant human BACE1 protein (amino acids 1–457, extracellular domain), sequence (P56817 22-457): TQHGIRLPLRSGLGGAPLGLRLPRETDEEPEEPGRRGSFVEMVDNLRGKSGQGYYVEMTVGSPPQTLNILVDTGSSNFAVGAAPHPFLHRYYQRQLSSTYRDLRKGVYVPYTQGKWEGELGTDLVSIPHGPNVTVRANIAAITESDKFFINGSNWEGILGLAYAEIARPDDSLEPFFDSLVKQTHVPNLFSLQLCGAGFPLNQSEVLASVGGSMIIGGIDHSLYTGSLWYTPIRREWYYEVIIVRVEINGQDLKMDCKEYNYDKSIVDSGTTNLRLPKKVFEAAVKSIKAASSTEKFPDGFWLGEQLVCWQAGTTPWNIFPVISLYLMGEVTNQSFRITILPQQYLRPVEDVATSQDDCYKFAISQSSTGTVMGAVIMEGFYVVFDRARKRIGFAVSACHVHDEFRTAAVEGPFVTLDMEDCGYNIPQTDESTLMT
T1 sequence (P56817 46-457 limits assumed): as the sequence (P56818 46-457 limits assumed) above, with S6P, I162V, I165L, T180S, A182V, V340I, A393L counted along it
T2 sequence (P56817 46-501 D289N): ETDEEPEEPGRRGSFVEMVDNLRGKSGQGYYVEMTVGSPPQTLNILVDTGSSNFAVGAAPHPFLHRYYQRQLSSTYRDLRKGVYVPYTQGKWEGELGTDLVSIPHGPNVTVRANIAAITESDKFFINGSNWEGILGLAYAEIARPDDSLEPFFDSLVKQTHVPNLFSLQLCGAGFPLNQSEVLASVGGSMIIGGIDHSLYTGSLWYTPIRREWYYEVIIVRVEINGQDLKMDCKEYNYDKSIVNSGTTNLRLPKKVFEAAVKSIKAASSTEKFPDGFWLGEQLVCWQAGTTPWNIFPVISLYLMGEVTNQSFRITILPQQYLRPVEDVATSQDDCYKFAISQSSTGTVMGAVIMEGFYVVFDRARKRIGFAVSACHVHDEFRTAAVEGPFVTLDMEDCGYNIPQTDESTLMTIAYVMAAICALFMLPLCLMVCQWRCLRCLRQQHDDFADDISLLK
T3 sequence (P56817 46-501): as the sequence (P56817 46-501 D289N) above, with N244D counted along it
T4 sequence (P56817 46-501): as the sequence (P56817 46-501 D289N) above, with N244D counted along it

fluorescence reading, single replicates [8, 9] | fluorescence reading, single replicates [8, 10] | fluorescence reading, single replicates [8, 11] | fluorescence reading, single replicates [8, 12] | fluorescence reading, single replicates [8, 13] | fluorescence reading, single replicates [8, 14] | fluorescence reading, single replicates [8, 15] | fluorescence reading, single replicates [8, 16] | fluorescence reading, single replicates [8, 17] | fluorescence reading, single replicates [8, 18] | fluorescence reading, single replicates [8, 19] | fluorescence reading, single replicates [8, 20] | fluorescence reading, single replicates [8, 21] | fluorescence reading, single replicates [8, 22] | fluorescence reading, single replicates [8, 23] | Structure (SMILES) | binding of free acid dyes to recombinant BACE1 [8] | further results
– | – | – | – | – | – | – | – | – | – | – | – | – | – | – | C[C@@H](NC(=O)c1cc(C(=O)N[C@@H](Cc2ccccc2)[C@H](O)CNC2CC2)cc(N(C)S(=O)(=O)CCCNC(=O)c2ccc(C(=O)O)c(C3=c4cc5c(cc4Oc4cc6c(cc43)C(CS(=O)(=O)O)=CC(C)(C)N6)=NC(C)(C)C=C5CS(=O)(=O)O)c2)c1)c1ccccc1 | – | increase of potency of the pIC50 in a cell-free assay vs parent C3 ([1]; compared with unconjugated C3): 10 fold; IC50 ([1]; logistic fit, n = 3 for each compound, read-out: pIC50 (negative logarithm of the half-inhibitory concentration) (converted)): 2.45 nM; staining of BACE1 D289N [2]: no appreciable fluorescence; increase of fluorescent output in PBS supplemented with BSA ([3]; PBS + BSA (0.05%) vs PBS alone): +228%; increase of fluorescent output in presence of Expi293F cells ([3]; mock Expi293F cells in fluorobrite vs PBS alone): +302%; diffusion time constant of free probe [4]: 49 ± 2 μs; staining of BACE1 after preincubation with unconjugated C3 [5]: no appreciable fluorescence; signal-to-background ratio [6]: 5.9; EC50 [7]: 45.7 nM; diffusion time constant of the second (BACE1-bound, slow) population ([7]; 100 nM probe with BACE1 ECD, pH 5, mean ± SEM, n = 3 preparations): 300 ± 20 μs
– | – | – | – | – | – | – | – | – | – | – | – | – | – | – | C[C@@H](NC(=O)c1cc(C(=O)N[C@@H](Cc2ccccc2)[C@H](O)CNC2CC2)cc(N(C)S(C)(=O)=O)c1)c1ccccc1 [C3] | – | IC50 (BACE1): nanomolar range
996.43 and 995.816 and 995.716 | 995.873 and 995.729 and 996.039 | 995.788 and 996.299 and 996.353 | 996.08 and 995.975 and 995.829 | 996.289 and 995.771 and 996.152 | 995.856 and 996.198 and 996.218 | 996.164 and 995.908 and 996.132 | 996.17 and 996.327 and 995.657 | 996.076 and 996.3 and 995.686 | 996.777 and 995.969 and 996.167 | 996.159 and 995.85 and 996.173 | 995.972 and 996.54 and 995.887 | 996.02 and 995.911 and 996.501 | 996.211 and 996.223 and 996.163 | 996.477 and 996.486 and 996.65 | N=c1ccc2c(-c3cc(C(=O)O)ccc3C(=O)O)c3ccc(N)c(S(=O)(=O)O)c3oc-2c1S(=O)(=O)O [Alexa488] | did not observe any indication for affinity | –
1000.167 and 1000.199 and 1000.049 | 1000.123 and 1000.132 and 1000.01 | 1000.102 and 1000.025 and 1000.071 | 1000.271 and 1000.043 and 1000.008 | 1000.035 and 1000.075 and 1000.095 | 999.978 and 999.965 and 1000.148 | 1000.105 and 1000.065 and 999.949 | 1000.023 and 999.969 and 1000.096 | 1000.136 and 1000.189 and 1000.122 | 1000.014 and 1000.053 and 1000.126 | 999.991 and 999.997 and 999.948 | 999.898 and 999.877 and 999.931 | 999.758 and 999.742 and 999.781 | 999.645 and 999.707 and 999.65 | 999.562 and 999.587 and 999.529 | CC1(C)C=C(CS(=O)(=O)O)c2cc3c(cc2=N1)Oc1cc2c(cc1C=3c1cc(C(=O)O)ccc1C(=O)O)C(CS(=O)(=O)O)=CC(C)(C)N2 [Alexa568] | did not observe any indication for affinity | –

Reference: publication PMC11215771 (Journal of Medicinal Chemistry, 2024)
